“Also recorded” adds a separate entry of the source.
What was measured:
[1] = system: immature LC (Langerhans cells); assay: Apoptosis of immature LC, flow cytometry of PI stained nuclei (sub 2N particles) / annexin V; format: cell-based, human
[2] = system: immature LC (Langerhans cells); assay: Activation of immature LC: HLA-DR and CD86 expression by flow cytometry; format: cell-based, human; set-up: class II or CD86 upregulation on immature LC: dose or concentration left out as unconfirmed; conditions: for activation of immature LC (class II / CD86, DRhi-CD86hi) in the presence of TNFα: TNFα 1-10 ng/ml
Method: Immature LC were cultured with retinol or vehicle and/or TNFα for 40 h. Cells were washed and incubated with HLA-DR-FITC and CD86-PE or isotype controls for 15 min at 4° C. 10^4 events were then analyzed with a FACScalibur (Becton Dickinson) using CellQuest software (Becton Dickinson). % are given for DRhi CD86hi cells gated as indicated. Data are representative of three experiments on different donors.
FIG. 3A: Day 6 immature LC were cultured for 40 h with TNFα and/or retinoids or vehicle as indicated. Cells were washed and stained with HLA-DR-FITC and CD86-PE or isotype controls for 15 min at 4° C. 10^4 events were then analyzed with a FACScalibur (Becton Dickinson) using CellQuest software (Becton Dickinson). Data are given for DRhi/CD86 hi cells gated as indicated, and are representative of 10 experiments on different donors.
Percentages of DRhi/CD86 hi cells are represented and results are expressed as the mean±SD of at last three experiments on different donors.
Flow Cytometry Analysis. 1×10^5 cells were incubated in 96-well plates (Becton Dickinson Labware, Franklin Lakes, N.J.) for 15 min at 4 ° C. in PBS, 2% human AB serum, and 0.01 M NaN3, with FITC-conjugated anti-DR (Immunotech, Marseille, France) and PE-conjugated CD86 (Pharmingen, San Diego, Calif.) at the appropriate concentration, or with control isotype-matched irrelevant mAbs at the same concentration. After washing, 10^4 events were analyzed with a FACScalibur (Becton Dickinson Immunocytometry Systems, Mountain View, Calif.) using CellQuest software.

RXR AF2 = conditions: retinoid activity, reporter cells; cited from earlier work
RARγ AF2 = biological target: T1, RARγ AF2 (Homo sapiens, UniProt P13631); conditions: retinoid activity, reporter cells; cited from earlier work; note: key: '+' = agonist; '(+)' = weak agonist; '−' = antagonist; '0' = absence of agonist and antagonist activities
T1 construct: expressed in transfected cells
T1 sequence (P13631 185-419 limits assumed): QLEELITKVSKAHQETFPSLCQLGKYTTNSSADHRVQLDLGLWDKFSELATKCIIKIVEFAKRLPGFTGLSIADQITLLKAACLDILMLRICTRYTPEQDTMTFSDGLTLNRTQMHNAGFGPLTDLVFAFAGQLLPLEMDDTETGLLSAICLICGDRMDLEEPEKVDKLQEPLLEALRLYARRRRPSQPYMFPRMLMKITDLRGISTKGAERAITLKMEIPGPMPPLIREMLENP

RARβ AF2 = biological target: T2, RARβ AF2 (Homo sapiens, UniProt P10826); conditions: retinoid activity, reporter cells; cited from earlier work; note: key: '+' = agonist; '(+)' = weak agonist; '−' = antagonist; '0' = absence of agonist and antagonist activities
T2 construct: expressed in transfected cells
T2 sequence (P10826 183-417 limits assumed): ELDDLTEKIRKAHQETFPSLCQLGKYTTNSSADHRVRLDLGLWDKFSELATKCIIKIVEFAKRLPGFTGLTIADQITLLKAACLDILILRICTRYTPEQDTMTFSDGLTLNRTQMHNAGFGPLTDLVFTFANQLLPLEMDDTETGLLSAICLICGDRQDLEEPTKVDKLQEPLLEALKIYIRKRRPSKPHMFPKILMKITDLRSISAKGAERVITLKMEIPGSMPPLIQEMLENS

RARα AF2 = biological target: T3, RARα AF2 (Homo sapiens, UniProt P10276); conditions: retinoid activity, reporter cells; cited from earlier work; note: key: '+' = agonist; '(+)' = weak agonist; '−' = antagonist; '0' = absence of agonist and antagonist activities
T3 construct: expressed in transfected cells
T3 sequence (P10276 183-417 limits assumed): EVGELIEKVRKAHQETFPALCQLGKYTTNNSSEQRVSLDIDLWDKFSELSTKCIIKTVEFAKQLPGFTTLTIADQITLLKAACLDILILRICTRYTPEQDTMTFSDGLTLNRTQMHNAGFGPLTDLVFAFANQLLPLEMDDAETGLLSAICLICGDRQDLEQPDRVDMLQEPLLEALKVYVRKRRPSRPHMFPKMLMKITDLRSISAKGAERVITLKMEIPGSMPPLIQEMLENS

[3] = 1 nM, two days in culture, mean ± SD
[4] = 10 nM, two days in culture, mean ± SD
[5] = 100 nM, two days in culture, mean ± SD
[6] = 1 μM, two days in culture, mean ± SD

Compound	inhibition of retinoid-induced apoptosis / cell death of immature LC ([1]; result in words)	activation of immature LC (class II / CD86, DRhi-CD86hi) in the presence of TNFα ([2]; result in words)	RXR AF2 (RXR AF2)	percentage of apoptotic (<2N) particles [1, 3]	percentage of apoptotic (<2N) particles [1, 4]	percentage of apoptotic (<2N) particles [1, 5]	percentage of apoptotic (<2N) particles [1, 6]	RARγ AF2 (RARγ AF2)	RARβ AF2 (RARβ AF2)	RARα AF2 (RARα AF2)	percentage of apoptotic (<2N) particles ([1]; 100 nM SR11237 + 1 nM ligand)	percentage of apoptotic (<2N) particles ([1]; 100 nM SR11237 + 10 nM ligand)	percentage of apoptotic (<2N) particles ([1]; 100 nM SR11237 + 100 nM ligand)	percentage of apoptotic (<2N) particles ([1]; 100 nM SR11237 + 1 μM ligand)	other results
IL-1β: Human recombinant IL-1β from R&D Systems	inhibited the apoptotic effect of retinoids														
CC1=C(/C=C/C(C)=C\C=C\C(C)=C\C(=O)O)C(C)(C)CCC1 [Compound 9cRA, 9-cis retinoic acid, reference compound]		upregulate	+	≦5%	≦5%	8 ± 3%	30 ± 9%								class II or CD86 upregulation on immature LC ([2]; in the absence or at low concentrations of TNFα): did not significantly induce; induction of apoptosis / death of immature LC by the substance on its own ([1]; no TNFα, result in words): induced a similar dose- and time-dependent increase in death
CC1(C)CC=C(C#Cc2ccccc2)c2cc(/C=C/c3ccc(C(=O)O)cc3)ccc21 [Compound VIII]	inhibited retinol-induced cell death; also recorded: strongly inhibited		0					−	−	−	≦5%	≦5%	≦5%	≦5%	effect on Compound II / SR11237 synergy for TNFα-induced LC activation ([2]; result in words): inhibited; effect on TNFα-SR11237 synergism for LC activation ([2]; result in words): only a weak effect; effect on synergy between TNFα and retinol, tRA or Compound I on LC activation ([2]; result in words): inhibited; effect on 9cRA-induced LC activation ([2]; with TNFα, result in words): only partially blocked
TNFα	inhibited the pro-apoptotic effects														inhibition of the pro-apoptotic effects of retinol ([1]; 1 ng/ml of TNFα): > 50%; percentage of apoptotic (<2N) particles ([1]; agent + Cmpd. I 1 μM, Cmpd. II 1 μM, Cmpd. VIII 1 μM, Z-Vad 50 μM, TNFα 10 ng/ml, CD40L coculture): 11 ± 1%; percentage of apoptotic (<2N) particles ([1]; agent + Compound I 100 nM + SR11237 100 nM, Cmpd. II 1 μM, Cmpd. VIII 1 μM, Z-Vad 50 μM, TNFα 10 ng/ml, CD40L coculture): 14 ± 2%; percentage of apoptotic (<2N) particles ([1]; agent + Rol 1 μM, Cmpd. VIII 1 μM, TNFα 10 ng/ml): 4.5 ± 1%; percentage of apoptotic (<2N) particles ([1]; agent + tRA 1 μM, Cmpd. II 1 μM, Cmpd. VIII 1 μM, Z-Vad 50 μM, TNFα 10 ng/ml, CD40L coculture): 8 ± 7%; percentage of apoptotic (<2N) particles ([1]; agent alone (column 0), Cmpd. II 1 μM, Cmpd. VIII 1 μM, Z-Vad 50 μM, TNFα 10 ng/ml, CD40L coculture): ≦5%
Cc1ccc(S(=O)(=O)N[C@@H](Cc2ccccc2)C(=O)CCl)cc1 [TPCK]															inhibition of the increase of class II and CD86 on LCs ([2]; LCs treated with tRA and TNFα, TPCK 10 nM): 50%; toxicity on LCs ([2]; TPCK 10 nM, LCs treated with tRA and TNFα): without any evidence of toxicity
CC1(C)CC=C(c2ccccc2)c2cc(/C=C/c3ccc(C(=O)O)cc3Cl)ccc21 [Compound III, (E)-3-Chloro-4-[2-(5,6-dihydro-5,5-dimethyl-8-phenyl-2-naphthalenyl)-ethenyl] benzoic acid]		weak effect; also recorded: upregulate	0	≦5%	≦5%	≦5%	≦5%	0	+	0	≦5%	≦5%	16 ± 3%	30 ± 2%	synergy with the pan-RXR agonist SR11237 to induce LC death ([1]; result in words): synergized with the pan-RXR agonist to induce LC death
CC1(C)CC=C(c2ccccc2)c2cc(/C=C/c3ccc(C(=O)O)cc3)ccc21 [Compound VII]		weak effect	0	≦5%	≦5%	≦5%	10 ± 6%	−	+	−	≦5%	5%	20 ± 6%	19 ± 7%	synergy with the pan-RXR agonist SR11237 to induce LC death ([1]; result in words): synergized with the pan-RXR agonist to induce LC death
